Measured values reported in ChEMBL document CHEMBL1201862, “PubChem BioAssay data set” (2004).
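Each compound was tested at five concentrations against cells in 96-well plates for 48 hours. GI50: concentration for 50% inhibition of growth.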 The source made the active and inactive calls. Cut-off read from the data, not from the text of the source: active = GI50 up to about 1.1 µM and inactive = higher.

Columns and labels:
Experiment in all cases: NCI tumour cell line growth inhibition, 48 h
ACHN = tested on: ACHN
A498 = tested on: A498
786-0 = tested on: 786-0
NCI-H226 = tested on: NCI-H226
CCRF-CEM = tested on: CCRF-CEM
RXF 393 = tested on: RXF 393
SF-295 = tested on: SF-295
HL-60 = tested on: HL-60
OVCAR-3 = tested on: OVCAR-3
HCT-116 = tested on: HCT-116
MOLT-4 = tested on: MOLT-4
HCT-15 = tested on: HCT-15
OVCAR-8 = tested on: OVCAR-8
SN12C = tested on: SN12C
HOP-62 = tested on: HOP-62
SF-268 = tested on: SF-268
UACC-62 = tested on: UACC-62
SK-MEL-28 = tested on: SK-MEL-28
U-251 = tested on: U-251
LXFL 529 = tested on: LXFL 529

SMILES	GI50 (ACHN)	GI50 (A498)	GI50 (786-0)	GI50 (NCI-H226)	GI50 (CCRF-CEM)	GI50 (RXF 393)	GI50 (SF-295)	GI50 (HL-60)	GI50 (OVCAR-3)	GI50 (HCT-116)	GI50 (MOLT-4)	GI50 (HCT-15)	GI50 (OVCAR-8)	GI50 (SN12C)	GI50 (HOP-62)	GI50 (SF-268)	GI50 (UACC-62)	GI50 (SK-MEL-28)	GI50 (U-251)	GI50 (LXFL 529)
CCCCCCCCCCCCCCCC[N+](C)(C)CCl	2.66 µM (inactive)	8.67 µM (inactive)	1.55 µM (inactive)	2.12 µM (inactive)	1.15 µM (inactive)	1.32 µM (inactive)	2.26 µM (inactive)	0.964 µM (active)	3.03 µM (inactive)	2.14 µM (inactive)	1.84 µM (inactive)	3.59 µM	2.61 µM (inactive)	3.19 µM (inactive)	2.29 µM (inactive)	2.74 µM (inactive)	2.29 µM (inactive)	5.19 µM (inactive)	1.68 µM (inactive)	
C1=N\CCOCC/N=C\c2ccc(cc2)OCc2cccc(n2)COc2ccc/1cc2	> 100 µM (inactive)	> 100 µM (inactive)	> 100 µM (inactive)	57.8 µM (inactive)	> 100 µM (inactive)	> 100 µM (inactive)	98.2 µM (inactive)	> 100 µM (inactive)	37.6 µM (inactive)	> 100 µM (inactive)	> 100 µM (inactive)	> 100 µM	> 100 µM (inactive)	> 100 µM (inactive)	> 100 µM (inactive)	> 100 µM (inactive)	> 100 µM (inactive)	> 100 µM (inactive)	> 100 µM (inactive)	
O=C(O)COc1cccc2ccccc(=O)c12	> 100 µM (inactive)	> 100 µM (inactive)	> 100 µM (inactive)	> 100 µM (inactive)	> 100 µM (inactive)	> 100 µM (inactive)	> 100 µM (inactive)	> 100 µM (inactive)	> 100 µM (inactive)	> 100 µM (inactive)	> 100 µM (inactive)	> 100 µM	> 100 µM (inactive)	> 100 µM (inactive)	> 100 µM (inactive)	> 100 µM (inactive)	> 100 µM (inactive)	> 100 µM (inactive)	> 100 µM (inactive)	
COc1ccc(NC(=O)CC/C(CC(=O)c2ccco2)=N/NC(N)=S)cc1	> 100 µM (inactive)	> 100 µM (inactive)	> 100 µM (inactive)	> 100 µM (inactive)	> 100 µM (inactive)		> 100 µM (inactive)	> 100 µM (inactive)	> 100 µM (inactive)	> 100 µM (inactive)	> 100 µM (inactive)	> 100 µM	> 100 µM (inactive)	> 100 µM (inactive)	> 100 µM (inactive)	> 100 µM (inactive)	> 100 µM (inactive)		> 100 µM (inactive)	> 100 µM (inactive)
COc1ccc(/C(Nc2ccccc2)=C(\CCl)c2ccccc2)cc1OC	31.9 µM (inactive)	> 100 µM (inactive)	55.8 µM (inactive)	30.9 µM (inactive)	17.3 µM (inactive)	83.8 µM (inactive)	49.2 µM (inactive)	18.9 µM (inactive)	35.7 µM (inactive)	17.7 µM (inactive)	29.6 µM (inactive)	40.7 µM	35.2 µM (inactive)	36.7 µM (inactive)	> 100 µM (inactive)	97.1 µM (inactive)	99.1 µM (inactive)	82 µM (inactive)	6.53 µM (inactive)	
COc1ccc(-n2c(Cn3nnc(-c4cccnc4)n3)nn(C3OC(COC(=O)c4ccccc4)C(OC(=O)c4ccccc4)C3OC(=O)c3ccccc3)c2=S)cc1 (stereo not given)	> 100 µM (inactive)	> 100 µM (inactive)	> 100 µM (inactive)	14.2 µM (inactive)	> 100 µM (inactive)	> 100 µM (inactive)	> 100 µM (inactive)	> 100 µM (inactive)	> 100 µM (inactive)	> 100 µM (inactive)	> 100 µM (inactive)	> 100 µM	> 100 µM (inactive)	> 100 µM (inactive)	> 100 µM (inactive)	> 100 µM (inactive)	> 100 µM (inactive)	> 100 µM (inactive)	> 100 µM (inactive)	
O=C(/C=C/c1ccco1)c1ccc(NCc2nc3ccccc3[nH]2)cc1	17.5 µM (inactive)	14.4 µM (inactive)	14.6 µM (inactive)	1.73 µM (inactive)	13 µM (inactive)		15.6 µM (inactive)	13 µM (inactive)	16.6 µM (inactive)		10.4 µM (inactive)	15 µM	17.9 µM (inactive)	17.2 µM (inactive)	19.1 µM (inactive)	20 µM (inactive)	14 µM (inactive)	18 µM (inactive)	10.9 µM (inactive)	14.3 µM (inactive)
O=c1[nH]c2cc3cccnc3c(Cl)c2nc1C(F)(F)F	35.9 µM (inactive)	19.2 µM (inactive)	72.4 µM (inactive)	30.1 µM (inactive)	28.1 µM (inactive)	46.7 µM (inactive)	41 µM (inactive)	32.9 µM (inactive)	34.4 µM (inactive)	43.5 µM (inactive)	23.6 µM (inactive)	44.5 µM	28.8 µM (inactive)	75.5 µM (inactive)	29.3 µM (inactive)	60.7 µM (inactive)	22 µM (inactive)	62.8 µM (inactive)	50.8 µM (inactive)	
